Assay results: PubChem BioAssay (NCI)
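The compound was tested at five concentrations on cells cultured in 96-well plates, with a 48-hour exposure period. Abbreviation: GI50, concentration required for 50% inhibition of growth. TGI: total growth inhibition.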

Tests used:
Assay in all cases: NCI-60 cell line screen, 48 h
[1] = test system: HT29 colon
[2] = test system: NCI-H23 lung
[3] = test system: OVCAR-3 ovarian
[4] = test system: COLO 205 colon
[5] = test system: TK-10 renal
[6] = test system: SW-620 colon
[7] = test system: SN12C renal
[8] = test system: A549 NSCLC
[9] = test system: KM12 colon

SMILES | TGI [1] | TGI [2] | TGI [3] | TGI [4] | TGI [5] | TGI [6] | TGI [7] | TGI [8] | TGI [9] | GI50 [1] | GI50 [2] | GI50 [3] | GI50 [4] | GI50 [5] | GI50 [6] | GI50 [7] | GI50 [8] | GI50 [9]
N#C/C(=C1\SC(N=Nc2ccccc2)C(=O)N1c1ccccc1)c1nc2ccccc2[nH]1 (stereo not given) | > 100 µM | > 100 µM | > 100 µM | > 100 µM | > 100 µM | > 100 µM | > 100 µM | > 100 µM | – | – | – | – | – | – | – | – | – | –
O=c1c2cccc3cccc(c4n1CCN=4)c32 | > 100 µM | > 100 µM | > 100 µM | > 100 µM | 69.1 µM | > 100 µM | > 100 µM | > 100 µM | > 100 µM | – | – | – | – | – | – | – | – | –
O=S1Nc2c(Cl)cc(Cl)c3c(Cl)cc(Cl)c(c23)N1 | > 100 µM | > 100 µM | 96.2 µM | > 100 µM | > 100 µM | > 100 µM | > 100 µM | > 100 µM | > 100 µM | – | – | – | – | – | – | – | – | –
C=C1CCC2C(C)(COC(=O)CC)C(OC(=O)CC)CCC2(C)C1C/C=C1/C(=O)OCC1OC(=O)CC (stereo not given) | 2.24 µM | 13.2 µM | 3.15 µM | 3.96 µM | 5.59 µM | 2.44 µM | 10.1 µM | 4.22 µM | 3.75 µM | 0.987 µM | 3.39 µM | 1.77 µM | 2.1 µM | 2.04 µM | 1.17 µM | 2.63 µM | 2.03 µM | 1.86 µM
COC(=O)C1[C@H](c2cc(OC)c(OC)c(OC)c2)OC(=O)C1(C(=O)OC)C(=O)c1ccc2c(c1)OCO2 (stereo not given in full) | > 100 µM | > 100 µM | > 100 µM | > 100 µM | > 100 µM | > 100 µM | > 100 µM | > 100 µM | > 100 µM | – | – | – | – | – | – | – | – | –
FC(F)(F)C1(Br)C(c2ccccc2)=C1c1ccccc1 | 34.8 µM | 32.7 µM | 29.6 µM | 34.9 µM | 48.6 µM | 33.5 µM | 28.3 µM | 85.7 µM | 29.4 µM | – | – | – | – | – | – | – | – | –
CCc1cccc(CC)c1NC(=O)C1=C(C)NC(C)=C(C(=O)Nc2c(CC)cccc2CC)C1c1ccc([N+](=O)[O-])cc1 | 40 µM | > 100 µM | 96 µM | 54.5 µM | 82.5 µM | 59.1 µM | > 100 µM | > 100 µM | 48.8 µM | – | – | – | – | – | – | – | – | –
Cc1cc(N(CCC#N)S(C)(=O)=O)ccc1C=Nc1ccc(C(=O)NN2C(=O)/C(=C/c3ccc(N(CCC#N)CCC#N)cc3C)N=C2c2cc([N+](=O)[O-])ccc2Cl)cc1 | > 100 µM | > 100 µM | > 100 µM | > 100 µM | > 100 µM | > 100 µM | > 100 µM | > 100 µM | > 100 µM | – | – | – | – | – | – | – | – | –
COc1cccc(/C=C/C(=O)c2ccc(Cl)cc2Cl)c1 | > 50 µM | 28.7 µM | 25.2 µM | 18.4 µM | > 50 µM | 7.62 µM | 16.5 µM | 22.7 µM | > 50 µM | 15.1 µM | 9.72 µM | 10.9 µM | 8.85 µM | 12.8 µM | 1.82 µM | 8.72 µM | 10.5 µM | 17.2 µM
CCOC(=N)CC(=O)c1ccccc1 | > 100 µM | > 100 µM | > 100 µM | > 100 µM | > 100 µM | > 100 µM | > 100 µM | > 100 µM | > 100 µM | – | – | – | – | – | – | – | – | –
CC/C(CC(=O)CCC(=O)Nc1ccccc1[N+](=O)[O-])=N/NC(=O)C[n+]1ccccc1 | > 100 µM | > 100 µM | > 100 µM | > 100 µM | > 100 µM | > 100 µM | > 100 µM | > 100 µM | > 100 µM | – | – | – | – | – | – | – | – | –
CCOC(=O)C(C)(C)Oc1ccc(/C=C/C(=O)c2ccc(Cl)cc2)cc1 | 29.3 µM | 37.1 µM | 30.4 µM | 53.2 µM | > 100 µM | 28 µM | 36 µM | > 100 µM | – | – | – | – | – | – | – | – | – | –
CCOC(=N)/C(=C1\OC(N)=C(c2ccc(Cl)cc2)C1=O)c1ccc(Cl)cc1 | 52.6 µM | 28.6 µM | 32.8 µM | 30.2 µM | 51.9 µM | 32.1 µM | 28.6 µM | 66.7 µM | 34.4 µM | – | – | – | – | – | – | – | – | –
CN1C(=O)C(=O)c2cc3c(c4c2c1cc1ccccc14)OCO3 | > 100 µM | > 100 µM | > 100 µM | 89.7 µM | > 100 µM | > 100 µM | > 100 µM | > 100 µM | 58.9 µM | – | – | – | – | – | – | – | – | –
O=C1OC(O)C(Oc2c(Cl)cccc2Cl)=C1Cl (stereo not given) | 34.3 µM | 38.9 µM | 31 µM | 30.2 µM | 69.1 µM | 28.3 µM | 35 µM | 34.7 µM | 54.1 µM | – | – | – | – | – | – | – | – | –
COc1ccc(/C=N\Nc2ccc([N+](=O)[O-])cn2)cc1OC | > 100 µM | > 100 µM | – | – | 7.73 µM | > 100 µM | > 100 µM | – | – | > 100 µM | 53.2 µM | – | – | 3.18 µM | > 100 µM | > 100 µM | – | –

SMILES | TGI [1] | TGI [2] | TGI [3] | TGI [4] | TGI [5] | TGI [6] | TGI [7] | TGI [8] | TGI [9] | GI50 [1] | GI50 [2] | GI50 [3] | GI50 [4] | GI50 [5] | GI50 [6] | GI50 [7] | GI50 [8] | GI50 [9]
COC(=O)C(Cc1nc2ccccc2[nH]c1=O)C(=O)C(=O)Nc1ccc([N+](=O)[O-])cc1[N+](=O)[O-] (stereo not given) | 35 µM | 35.9 µM | 30.5 µM | 35.2 µM | 61.4 µM | 39.6 µM | 50.6 µM | > 100 µM | 30.1 µM | – | – | – | – | – | – | – | – | –
O=[N+]([O-])C1Cc2ccccc2OC1c1ccccc1 (stereo not given) | > 100 µM | > 100 µM | > 100 µM | > 100 µM | > 100 µM | > 100 µM | 63 µM | > 100 µM | > 100 µM | – | – | – | – | – | – | – | – | –
CCOc1cccc2ccc[n+](CC)c12 | > 100 µM | > 100 µM | > 100 µM | > 100 µM | > 100 µM | > 100 µM | > 100 µM | > 100 µM | > 100 µM | – | – | – | – | – | – | – | – | –
C/C=C/CC(C)[C@@H](O)[C@H](NC)C(=O)O (stereo not given in full) | > 100 µM | > 100 µM | > 100 µM | > 100 µM | > 100 µM | > 100 µM | > 100 µM | > 100 µM | > 100 µM | – | – | – | – | – | – | – | – | –
CC(=O)[CH-]C(=O)c1ccccc1.CC(=O)[CH-]C(=O)c1ccccc1.CCOCC[O-].CCOCC[O-].[Ti+4] | 46.2 µM | – | > 100 µM | – | – | > 100 µM | 73.4 µM | 90.5 µM | 77.3 µM | 20.1 µM | – | 21.6 µM | – | – | 28.3 µM | 20.6 µM | 28.7 µM | 27.1 µM
CC(C)(C)C(=O)OC12/C(=N/O)CCCCCC1c1ccccc12 (stereo not given) | 26 µM | 31.3 µM | 32.1 µM | 31.3 µM | 30.1 µM | 34.2 µM | 33.6 µM | 31.6 µM | 30.1 µM | – | – | – | – | – | – | – | – | –
Cc1c(C(=O)/C=C/c2ccc(N(C)C)cc2)c(=O)n(-c2ccccc2)n1C | > 100 µM | > 100 µM | > 100 µM | > 100 µM | > 100 µM | > 100 µM | > 100 µM | > 100 µM | > 100 µM | – | – | – | – | – | – | – | – | –
O=C(Nc1cccc(O)c1)C(=O)C(C(=O)c1ccc(Cl)c(Cl)c1)C1OC(=O)c2ccccc21 (stereo not given) | 68.4 µM | 32.6 µM | – | 30.7 µM | 60.3 µM | 29 µM | 38.4 µM | > 100 µM | 41.4 µM | – | – | – | – | – | – | – | – | –
O=C1C(Cl)C(c2ccccc2O)N1n1cnc2ccccc2c1=O (stereo not given) | > 100 µM | > 100 µM | > 100 µM | > 100 µM | > 100 µM | > 100 µM | 20.4 µM | > 100 µM | > 100 µM | – | – | – | – | – | – | – | – | –
COc1cccc(NC(=O)c2sc3nc4c(cc3c2N)C(=O)CCC4)c1 | > 100 µM | > 100 µM | 0.653 µM | 2.15 µM | > 100 µM | > 100 µM | > 100 µM | > 100 µM | > 100 µM | 0.0866 µM | 0.346 µM | 0.0612 µM | 0.0834 µM | > 100 µM | 0.0571 µM | 0.461 µM | 0.103 µM | 0.0569 µM
O=c1[nH]c2cc(Cl)ccc2nc1/C(=N\O)C(O)c1ccc([N+](=O)[O-])cc1 (stereo not given) | > 100 µM | – | – | > 100 µM | > 100 µM | > 100 µM | > 100 µM | > 100 µM | > 100 µM | – | – | – | – | – | – | – | – | –
CN(C)C=C1C(Cl)=C(C=O)CC(C=O)=C1Cl | 30 µM | 37.1 µM | 27.7 µM | 30.6 µM | 31.8 µM | 7.3 µM | > 100 µM | > 100 µM | 22.1 µM | – | – | – | – | – | – | – | – | –
CC(C)(C)C1CCC2c3c([nH]c4ccccc34)C3C(=O)N(c4ccccc4)C(=O)C3C2C1 (stereo not given) | > 100 µM | 40.1 µM | 19.1 µM | 17.8 µM | 12.5 µM | 41 µM | 17.4 µM | 46 µM | > 100 µM | – | – | – | – | – | – | – | – | –
Cc1cc(Cl)ccc1NC(=O)C(=O)C(C(=O)c1ccc2ccccc2c1)C1OC(=O)c2ccccc21 (stereo not given) | 72.6 µM | 26.3 µM | 33.3 µM | 28.5 µM | – | 84.6 µM | 37.4 µM | 94.5 µM | 52.3 µM | – | – | – | – | – | – | – | – | –
COC1=CC(=O)C2C(C1=O)C(c1ccccc1)[C@H]2C (stereo not given in full) | > 100 µM | > 100 µM | > 100 µM | > 100 µM | > 100 µM | 36.6 µM | – | > 100 µM | > 100 µM | – | – | – | – | – | – | – | – | –
CN(C)c1nc(=Nc2cccc(Cl)c2)ss1 | 36.3 µM | > 100 µM | – | – | > 100 µM | 18.8 µM | 25.4 µM | 76.4 µM | 43.7 µM | – | – | – | – | – | – | – | – | –
